Laboratory results as given in US20200284781A1, “TEST METHOD OF COMBINED TOXICITY FOR CH[…] BUTACHLOR” (priority 2019, published 2020).
Converted amounts (≈) assume the structure as drawn.

How the values were obtained:
[1] = Single toxicity of chlorpyrifos and butachlor to Japanese medaka larvae; settings: in vivo, other: immersion in test solution (waterborne exposure), read-out: LC50 (95% CI)
Protocol: (§1) H. Data processing: Calculating the LC50 value of pesticides on larvae and their 95% confidence limits by probit analysis based on the number and time of dead fish larvae, and using 95% confidence limit of LC50 as the criterion to determine whether the toxicity difference of different pesticides is significant, LC50≤0.1 mg a.i. L^−1, is hypertoxic; 0.1<LC50≤1.0 mg a.i. L^−1, is high toxicity; 1.0<LC50≤[…] a.i. L^−1, is medium toxicity; LC50>10.0 mg a.i. L^−1 is low toxicity. The maximum allowable concentration of MPC employs 100 as the protection factor, the formula is: MPC=96 h-LC50/100, to get the maximum allowable concentration of a poison.
(§2) H. Data processing: Calculating the LC50 value of pesticides on larvae and their 95% confidence limits by probit analysis based on the number and time of dead fish larvae, and using 95% confidence limit of LC50 as the criterion to determine whether the toxicity difference of different drugs is significant, LC50≤0.1 mg a.i. L^−1, is hypertoxic; 0.1<LC50≤1.0 mg a.i. L^−1, is high toxicity; 1.0<LC50≤10.0 mg a.i. L^−1, is medium toxicity; LC50>10.0 mg a.i. L^−1, is low toxicity, the maximum allowable concentration of MPC employs 100 as the protection factor, the formula is: MPC=96 h-LC50/100, to get the maximum allowable concentration of a poison.
(§3) Wherein the larvae in the migratory period in step E refer to fish 120 h after fertilization of eggs, for improving the accuracy of the test.

[2] = Single toxicity of chlorpyrifos and butachlor to zebrafish larvae; settings: in vivo, other: immersion in test solution (waterborne exposure), read-out: LC50 (95% CI)
Protocol: as §1, §2, §3

[3] = Combined toxicity of chlorpyrifos and butachlor to zebrafish larvae; settings: in vivo, read-out: LC50 (95% CI) of the component in the mixture
Protocol: (§4) F. Combined toxicity test: The toxicity test is performed on zebrafish larvae and Japanese medaka larvae, the test procedure is as follows:
a. Zebrafish larvae: The LC50 value of zebrafish larvae with a single pesticide for 96 h is a toxic unit, and 5-7 different concentrations with a geometrical ratio, test method and calculation of LC50 value of each exposure time are the same as 1.4.2;
as §2

[4] = Combined toxicity of chlorpyrifos and butachlor to Japanese medaka larvae; settings: in vivo
Protocol: as §4
b. Japanese medaka: A single pesticide is used to measure the LC50 value of Japanese medaka for 96 hours, mixing chlorpyrifos and butachlor to form binary mixed systems with different ratios of 1:4, 2:3, 1:1, 3:2 and 4:1, according to the pre-experiment results, 5-7 different concentrations are set at equal logarithmic intervals to determine the combined toxicity of the mixed system to Japanese medaka, the method is the same as the determination of single toxicity, the total concentration of the binary mixture is the sum of the concentrations of the two components;
b. Japanese medaka: A single pesticide is used to measure the LC50 value of Japanese medaka for 96 hours, mixing chlorpyrifos and butachlor to form binary mixed systems with different ratios of 1:4, 2:3, 1:1, 3:2 and 4:1, according to the pre-experiment results, 5-7 different concentrations with a geometrical ratio are set at equal logarithmic intervals to determine the combined toxicity of the mixed system to Japanese medaka the method is the same as the determination, of single toxicity, the total concentration of the binary mixture is the sum of the concentrations of the two components;
as §2

zebrafish embryos = assay: Single toxicity of chlorpyrifos and butachlor to zebrafish embryos; format: in vivo
Protocol: (§5) D. Toxicity of pesticides to zebrafish embryos: On the basis of clearing the effective concentration range of pesticides in pre-tests, diluting the pesticide stock solution with standard dilution water to 5-7 concentrations with a geometrical ratio, and using a 24 well cell culture dish for exposure apparatus, the volume of each well is 3 mL, 20 wells are the same experimental concentration, and the remaining 4 wells are blank controls; during the experiment, of test solution and 1 randomly selected 3 hpf (hourpost-fertilization) normal fertilized embryo at the embryo shield stage were put into every well, set up 3 replicates at each concentration, every culture dish as a replicate, and incubating in a multifunctional incubator at 26±1° C. with a photoperiod of 14 h (light): 10 h (dark);
(§6) Preferably, in the step D, the test solution needs to be replaced every 24 h, observing and microscopical observing the CK group and the exposed group every 24 h, recording the number of embryos with normal development and malformations, and calculating the number of embryos hatched and larvae malformations, the experiment lasts 96 hours.
as §5, with “24-well” for “24 well”, “poisoning” for “exposure”, “experiment, 2 mL” for “experiment,”, “C. V:” for “C.”
as §2
(§7) Wherein in the step D, the test solution needs to be replaced every 24 h, observing and microscopical observing the CK group and the exposed group every 24 h, recording the number of embryos with normal development and malformations, and calculating the number of embryos hatched and larvae malformations, the experiment lasts 96 hours, for structural analysis.

[5] = as above; format: in vivo; settings: in vivo, other: immersion in test solution (waterborne exposure), read-out: LC50 (95% CI)
Protocol: as §5, §6
as §5, with “24-well” for “24 well”, “poisoning” for “exposure”, “experiment, 2 mL” for “experiment,”, “C. V:” for “C.”
as §2, §7

CCOP(=S)(OCC)Oc1nc(Cl)c(Cl)cc1Cl [Chlorpyrifos, chlorpyrifos]
LC50 at 24 h ([1]; exposure time 24 h): 0.75 µg/mL (≈ 2.14 µM) | LC50 at 48 h ([1]; exposure time 48 h): 0.4 µg/mL (≈ 1.14 µM) | LC50 at 72 h ([1]; exposure time 72 h): 0.35 µg/mL (≈ 0.998 µM) | LC50 at 96 h ([1]; exposure time 96 h): 0.24 µg/mL (≈ 0.685 µM) | LC50 at 24 h ([2]; exposure time 24 h): 0.67 µg/mL (≈ 1.91 µM) | LC50 at 48 h ([2]; exposure time 48 h): 0.39 µg/mL (≈ 1.11 µM) | LC50 at 72 h ([2]; exposure time 72 h): 0.34 µg/mL (≈ 0.97 µM) | LC50 at 96 h ([2]; exposure time 96 h): 0.27 µg/mL (≈ 0.77 µM) | LC50 at 24 h ([3]; equitoxic ratio): 0.55 µg/mL | LC50 at 48 h ([3]; equitoxic ratio): 0.43 µg/mL | LC50 at 72 h ([3]; equitoxic ratio): 0.27 µg/mL | LC50 at 96 h ([3]; equitoxic ratio): 0.16 µg/mL | LC50 at 24 h ([3]; equivalent concentration (1:1)): 0.18 µg/mL | LC50 at 48 h ([3]; equivalent concentration (1:1)): 0.16 µg/mL | LC50 at 72 h ([3]; equivalent concentration (1:1)): 0.14 µg/mL | LC50 at 96 h ([3]; equivalent concentration (1:1)): 0.11 µg/mL | LC50 at 24 h ([4]; Japanese medaka larvae, chlorpyrifos:butachlor ratio 4:1, 24 h, read-out: LC50 (95% CI) of the component in the mixture): 0.8 µg/mL | LC50 at 96 h ([4]; Japanese medaka larvae, chlorpyrifos:butachlor ratio 4:1, 96 h, read-out: LC50 (95% CI) of the component in the mixture): 0.14 µg/mL | LC50 at 24 h ([4]; other: immersion in test solution (waterborne exposure), Japanese medaka larvae, chlorpyrifos:butachlor ratio 1:1, 24 h, read-out: LC50 (95%) CI of the component in the mixture): 1.53 µg/mL | LC50 at 48 h ([4]; other: immersion in test solution (waterborne exposure), Japanese medaka larvae, chlorpyrifos:butachlor ratio 1:1, 48 h, read-out: LC50 (95%) CI of the component in the mixture): 1.22 µg/mL | LC50 at 72 h ([4]; other: immersion in test solution (waterborne exposure), Japanese medaka larvae, chlorpyrifos:butachlor ratio 1:1, 72 h, read-out: LC50 (95%) CI of the component in the mixture): 0.93 µg/mL | LC50 at 96 h ([4]; other: immersion in test solution (waterborne exposure), Japanese medaka larvae, chlorpyrifos:butachlor ratio 1:1, 96 h, read-out: LC50 (95%) CI of the component in the mixture): 0.81 µg/mL | LC50 at 48 h ([4]; other: immersion in test solution (waterborne exposure), Japanese medaka larvae, chlorpyrifos:butachlor ratio 4:1, 48 h, read-out: LC50 (95% CI) of the component in the mixture): 0.61 µg/mL | LC50 at 72 h ([4]; other: immersion in test solution (waterborne exposure), Japanese medaka larvae, chlorpyrifos:butachlor ratio 4:1, 72 h, read-out: LC50 (95% CI) of the component in the mixture): 0.43 µg/mL | LC50 at 24 h ([4]; other: immersion in test solution (waterborne exposure), chlorpyrifos:butachlor ratio 1:4, 24 h, read-out: LC50 (95% CI) of the component in the mixture): 0.57 µg/mL | LC50 at 48 h ([4]; other: immersion in test solution (waterborne exposure), chlorpyrifos:butachlor ratio 1:4, 48 h, read-out: LC50 (95% CI) of the component in the mixture): 0.33 µg/mL | LC50 at 72 h ([4]; other: immersion in test solution (waterborne exposure), chlorpyrifos:butachlor ratio 1:4, 72 h, read-out: LC50 (95% CI) of the component in the mixture): 0.28 µg/mL | LC50 at 96 h ([4]; other: immersion in test solution (waterborne exposure), chlorpyrifos:butachlor ratio 1:4, 96 h, read-out: LC50 (95% CI) of the component in the mixture): 0.22 µg/mL | LC50 at 24 h ([4]; other: immersion in test solution (waterborne exposure), chlorpyrifos:butachlor ratio 2:3, 24 h, read-out: LC50 (95% CI) of the component in the mixture): 1.52 µg/mL | LC50 at 48 h ([4]; other: immersion in test solution (waterborne exposure), chlorpyrifos:butachlor ratio 2:3, 48 h, read-out: LC50 (95% CI) of the component in the mixture): 0.44 µg/mL | LC50 at 72 h ([4]; other: immersion in test solution (waterborne exposure), chlorpyrifos:butachlor ratio 2:3, 72 h, read-out: LC50 (95% CI) of the component in the mixture): 0.28 µg/mL | LC50 at 96 h ([4]; other: immersion in test solution (waterborne exposure), chlorpyrifos:butachlor ratio 2:3, 96 h, read-out: LC50 (95% CI) of the component in the mixture): 0.23 µg/mL | LC50 at 24 h ([4]; other: immersion in test solution (waterborne exposure), chlorpyrifos:butachlor ratio 3:2, 24 h, read-out: LC50 (95% CI) of the component in the mixture): 2.23 µg/mL | LC50 at 48 h ([4]; other: immersion in test solution (waterborne exposure), chlorpyrifos:butachlor ratio 3:2, 48 h, read-out: LC50 (95% CI) of the component in the mixture): 1.94 µg/mL | LC50 at 72 h ([4]; other: immersion in test solution (waterborne exposure), chlorpyrifos:butachlor ratio 3:2, 72 h, read-out: LC50 (95% CI) of the component in the mixture): 1.31 µg/mL | LC50 at 96 h ([4]; other: immersion in test solution (waterborne exposure), chlorpyrifos:butachlor ratio 3:2, 96 h, read-out: LC50 (95% CI) of the component in the mixture): 0.99 µg/mL | effects of exposure on zebrafish embryo development (zebrafish embryos): egg coagulation, pericardial edema, yolk sac edema, and spinal curvature | LC50 at 24 h ([5]; exposure time 24 h): 170 µg/mL (≈ 485 µM) | LC50 at 48 h ([5]; exposure time 48 h): 120 µg/mL (≈ 341 µM) | LC50 at 72 h ([5]; exposure time 72 h): 63.4 µg/mL (≈ 181 µM) | LC50 at 96 h ([5]; exposure time 96 h): 13 µg/mL (≈ 37.2 µM)
